Reference: the OPERA property sets (Mansouri et al. 2018)

In the case of `Cc1ccc(S(=O)(=O)Oc2c(C(=O)c3ccc(Cl)cc3Cl)c(C)nn2C)cc1`, the logP is reported as 3.9.
Molecule `C#CCOS(=O)OC1CCCCC1Oc1ccc(C(C)(C)C)cc1` (stereo not drawn) has a logP of 5.
For `CCOP(=O)(Sc1ccccc1)Sc1ccccc1`, the logP was 3.48.
`CC(C)N1C(=O)c2ccccc2NS1(=O)=O` gave a logP of 2.34.
`CCOP(=S)(OCC)Oc1cc(-c2ccccc2)on1` gave a logP of 3.73.
`CC(C)OP(=O)(OC(C)C)SCc1ccccc1` showed a logP of 3.34.
`CC12CC1(C)C(=O)N(c1cc(Cl)cc(Cl)c1)C2=O` (stereo not drawn) showed a logP of 3.08.
With `OC(c1ccc(Cl)cc1)(c1ccc(Cl)cc1)C(Cl)(Cl)Cl` the logP was 5.02.
For `CCO/N=C(\OC(=O)c1ccccc1)c1c(OC)ccc(Cl)c1OC`, the logP was 3.73.
With `CCCOP(=S)(OCCC)SCC(=O)N1CCCCC1C` (stereo not drawn) the logP was 4.04.
With `O=C(NC(=O)c1c(F)cccc1F)Nc1cc(Cl)c(F)c(Cl)c1F` the logP was 4.56.
Work on `Clc1nc(Cl)nc(Nc2ccccc2Cl)n1` yielded a logP of 3.88.
With `CC(C)OC(=O)C(C(=O)OC(C)C)=C1SCCS1` the logP was 2.88.
